Measured values as given in patent US20070128217A1 (priority 2003, published 2007).

Assays:
[1] = test system: control sera (pooled serum of ten healthy LUMC hospital workers; commercial negative donor pooled serum from the Dutch bloodbank); format: binding, human; design: Binding of Control serum LUMC to linear peptides / Binding of Control serum Blood-bank to linear peptides / Binding of Control serum LUMC to looped peptides / Binding of Control Serum Blood-Bank to Looped peptides / Binding of Control serum LUMC to linear peptides of the protein M of SARS-CoV Urbani / Binding of Control serum Blood-bank to linear peptides of the protein M of SARS-CoV Urbani / Binding of Control serum LUMC to looped peptides of the protein M of SARS-CoV Urbani / Binding of Control Serum Blood-Bank to Looped peptides of the protein M of SARS-CoV Urbani: unit not given here
[2] = test system: antibodies in sera from SARS patients (sera 1a, 1b, 2, 6, 37, 62, London, SARS-yellow, SARS-green); format: binding, human; design: Binding of serum 6 to linear peptides of protein X1 of SARS-CoV Urbani / Binding of serum 37 to linear peptides of protein X1 of SARS-CoV Urbani / Binding of serum 6 to looped/cyclic peptide (PEPSCAN-ELISA) / Binding of serum 37 to looped/cyclic peptide (PEPSCAN-ELISA) / Binding of serum 37 to looped/cyclic peptides of protein X1 of SARS-CoV Urbani / Binding of serum 6 to linear peptides of protein X2 / Binding of serum 37 to linear peptides of protein X2 / Binding of serum 37 to looped/cyclic peptides of protein X2 of SARS-CoV Urbani / Binding of serum 6 to linear peptides of protein M of SARS-CoV Urbani / Binding of serum 37 to linear peptides of protein M of SARS-CoV Urbani / Binding of serum 6 to looped/cyclic peptides of protein M of SARS-CoV Urbani / Binding of serum 37 to looped/cyclic peptides of protein M of SARS-CoV Urbani / Binding of serum 6 to linear peptides of protein X3 of SARS-CoV Urbani / Binding of serum 37 to linear peptides of protein X3 of SARS-CoV Urbani / Binding of serum 37 to looped/cyclic peptides of protein X3 of SARS-CoV Urbani / Binding of serum 6 to linear peptides of protein X4 of SARS-CoV Urbani / Binding of serum 37 to linear peptides of protein X4 of SARS-CoV Urbani / Binding of serum 37 to looped/cyclic peptides of protein X4 of SARS-CoV Urbani / Binding of serum 6 to linear peptides of protein X5 of SARS-CoV Urbani / Binding of serum 37 to linear peptides of protein X5 of SARS-CoV Urbani / Binding of serum 37 to looped/cyclic peptides of protein X5 of SARS-CoV Urbani / Binding of serum 6 to linear peptides of protein N of SARS-CoV Urbani / Binding of serum 37 to linear peptides of protein N of SARS-CoV Urbani / Binding of serum 6 to linear peptide (PEPSCAN-ELISA) / Binding of serum 1a to looped/cyclic peptides of protein N of SARS-CoV Urbani / Binding of serum 1b to looped/cyclic peptides of protein N of SARS-CoV Urbani / Binding of serum 2 to looped/cyclic peptides of protein N of SARS-CoV Urbani / Binding of serum 6 to looped/cyclic peptides of protein N of SARS-CoV Urbani / Binding of serum 37 to looped/cyclic peptides of protein N of SARS-CoV Urbani / Binding of serum 62 to looped/cyclic peptides of protein N of SARS-CoV Urbani / Binding of serum London to looped/cyclic peptides of protein N of SARS-CoV Urbani / Binding of serum SARS-green to looped/cyclic peptides of protein N of SARS-CoV Urbani: unit not given here
[3] = test system: rabbit serum obtained by immunizing a rabbit with the SARS-CoV strain Frankfurt 1; format: binding; design: Binding of a rabbit serum to linear peptides / Binding of a rabbit serum to looped peptides / Rabbit serum linear peptides / Rabbit serum looped peptides / Binding of a rabbit serum to linear peptides of protein N of SARS-CoV Urbani (Rabbit serum linear peptides) / Binding of a rabbit serum to looped/cyclic peptides of protein N of SARS-CoV Urbani (Rabbit serum looped peptides): unit not given here

## IILFLTLIVFTSCEL
[1]
  Binding of Control Serum Blood-Bank to Looped peptides: 0.7
  Binding of Control serum Blood-bank to linear peptides: 0.7
  Binding of Control serum LUMC to linear peptides: 0.9
  Binding of Control serum LUMC to looped peptides: 0.6
[2]
  Binding of serum 1a to linear peptides of protein X4 of SARS-CoV Urbani: 0.8
  Binding of serum 1a to looped/cyclic peptides of protein X4 of SARS-CoV Urbani: 0.7
  Binding of serum 1b to linear peptides of protein X4 of SARS-CoV Urbani: 0.8
  Binding of serum 1b to looped/cyclic peptides of protein X4 of SARS-CoV Urbani: 0.1
  Binding of serum 2 to linear peptides of protein X4 of SARS-CoV Urbani: 0.6
  Binding of serum 2 to looped/cyclic peptides of protein X4 of SARS-CoV Urbani: 0.6
  Binding of serum 6 to linear peptides of protein X4 of SARS-CoV Urbani: 0.5
  Binding of serum 6 to looped/cyclic peptides of protein X4 of SARS-CoV Urbani: 0.5
  Binding of serum 37 to linear peptides of protein X4 of SARS-CoV Urbani: 0.9
  Binding of serum 37 to looped/cyclic peptides of protein X4 of SARS-CoV Urbani: 0.7
  Binding of serum 62 to linear peptides of protein X4 of SARS-CoV Urbani: 0.8
  Binding of serum 62 to looped/cyclic peptides of protein X4 of SARS-CoV Urbani: 0.7
  Binding of serum London to linear peptides of protein X4 of SARS-CoV Urbani: 0.7
  Binding of serum London to looped/cyclic peptides of protein X4 of SARS-CoV Urbani: 0.2
  Binding of serum SARS-green to linear peptides of protein X4 of SARS-CoV Urbani: 0.6
  Binding of serum SARS-green to looped/cyclic peptides of protein X4 of SARS-CoV Urbani: 0.4
  Binding of serum SARS-yellow to linear peptides of protein X4 of SARS-CoV Urbani: 0.7
  Binding of serum SARS-yellow to looped/cyclic peptides of protein X4 of SARS-CoV Urbani: 0.6
[3]
  Rabbit serum linear peptides: 0.8
  Rabbit serum looped peptides: 0.5

## ILLNVPLRGTIVTRP
[1]
  Binding of Control Serum Blood-Bank to Looped peptides of the protein M of SARS-CoV Urbani: 0.5
  Binding of Control serum Blood-bank to linear peptides of the protein M of SARS-CoV Urbani: 0.6
  Binding of Control serum LUMC to linear peptides of the protein M of SARS-CoV Urbani: 0.4
  Binding of Control serum LUMC to looped peptides of the protein M of SARS-CoV Urbani: 0.5
[2]
  Binding of serum 1a to linear peptides of protein M of SARS-CoV Urbani: 0.6
  Binding of serum 1b to linear peptides of protein M of SARS-CoV Urbani: 0.4
  Binding of serum 2 to linear peptides of protein M of SARS-CoV Urbani: 0.4
  Binding of serum 6 to linear peptides of protein M of SARS-CoV Urbani: 0.2
  Binding of serum 37 to linear peptides of protein M of SARS-CoV Urbani: 0.4
  Binding of serum 62 to linear peptides of protein M of SARS-CoV Urbani: 0.4
  Binding of serum London to linear peptides of protein M of SARS-CoV Urbani: 0.3
  Binding of serum SARS-green to linear peptides of protein M of SARS-CoV Urbani: 0.4
  Binding of serum SARS-yellow to linear peptides of protein M of SARS-CoV Urbani: 0.2
  Recognition of the peptide by sera of SARS-CoV infected individuals, and form (linear, looped/cyclic) in which it is recognized: recognized in looped/cyclic form
[3]
  Rabbit serum linear peptides: 0.0
  Rabbit serum looped peptides: 0.2

## ILVRYNTRGNTYSTA
[1]
  Binding of Control Serum Blood-Bank to Looped peptides: 0.4
  Binding of Control serum Blood-bank to linear peptides: 0.7
  Binding of Control serum LUMC to linear peptides: 0.5
  Binding of Control serum LUMC to looped peptides: 0.6
[2]
  Binding of serum 1a to linear peptides of protein X5 of SARS-CoV Urbani: 0.7
  Binding of serum 1a to looped/cyclic peptides of protein X5 of SARS-CoV Urbani: 0.5
  Binding of serum 1b to linear peptides of protein X5 of SARS-CoV Urbani: 0.4
  Binding of serum 1b to looped/cyclic peptides of protein X5 of SARS-CoV Urbani: 0.3
  Binding of serum 2 to linear peptides of protein X5 of SARS-CoV Urbani: 0.6
  Binding of serum 2 to looped/cyclic peptides of protein X5 of SARS-CoV Urbani: 0.6
  Binding of serum 6 to linear peptides of protein X5 of SARS-CoV Urbani: 0.7
  Binding of serum 6 to looped/cyclic peptides of protein X5 of SARS-CoV Urbani: 0.6
  Binding of serum 37 to linear peptides of protein X5 of SARS-CoV Urbani: 0.6
  Binding of serum 37 to looped/cyclic peptides of protein X5 of SARS-CoV Urbani: 0.4
  Binding of serum 62 to linear peptides of protein X5 of SARS-CoV Urbani: 0.7
  Binding of serum 62 to looped/cyclic peptides of protein X5 of SARS-CoV Urbani: 0.8
  Binding of serum London to linear peptides of protein X5 of SARS-CoV Urbani: 0.6
  Binding of serum London to looped/cyclic peptides of protein X5 of SARS-CoV Urbani: 0.2
  Binding of serum SARS-green to linear peptides of protein X5 of SARS-CoV Urbani: 0.5
  Binding of serum SARS-green to looped/cyclic peptides of protein X5 of SARS-CoV Urbani: 0.3
  Binding of serum SARS-yellow to linear peptides of protein X5 of SARS-CoV Urbani: 0.2
  Binding of serum SARS-yellow to looped/cyclic peptides of protein X5 of SARS-CoV Urbani: 0.8
[3]
  Rabbit serum linear peptides: 0.9
  Rabbit serum looped peptides: 0.8

## IPLQASLPFGWLVIG
[1]
  Binding of Control Serum Blood-Bank to Looped peptides: 0.6
  Binding of Control serum Blood-bank to linear peptides: 0.7
  Binding of Control serum LUMC to linear peptides: 0.8
  Binding of Control serum LUMC to looped peptides: 0.6
[2]
  Binding of serum 1a to linear peptides of protein X1 of SARS-CoV Urbani: 0.8
  Binding of serum 1a to looped/cyclic peptide (PEPSCAN-ELISA): 0.6
  Binding of serum 1b to linear peptides of protein X1 of SARS-CoV Urbani: 0.6
  Binding of serum 1b to looped/cyclic peptide (PEPSCAN-ELISA): 0.4
  Binding of serum 2 to linear peptides of protein X1 of SARS-CoV Urbani: 0.6
  Binding of serum 2 to looped/cyclic peptide (PEPSCAN-ELISA): 0.4
  Binding of serum 6 to linear peptides of protein X1 of SARS-CoV Urbani: 0.5
  Binding of serum 6 to looped/cyclic peptide (PEPSCAN-ELISA): 0.3
  Binding of serum 37 to linear peptides of protein X1 of SARS-CoV Urbani: 0.7
  Binding of serum 37 to looped/cyclic peptide (PEPSCAN-ELISA): 0.5
  Binding of serum 62 to linear peptides of protein X1 of SARS-CoV Urbani: 0.6
  Binding of serum 62 to looped/cyclic peptide (PEPSCAN-ELISA): 0.6
  Binding of serum London to linear peptides of protein X1 of SARS-CoV Urbani: 0.3
  Binding of serum London to looped/cyclic peptide (PEPSCAN-ELISA): 0.2
  Binding of serum SARS-green to linear peptides of protein X1 of SARS-CoV Urbani: 0.4
  Binding of serum SARS-green to looped/cyclic peptide (PEPSCAN-ELISA): 0.3
  Binding of serum SARS-yellow to linear peptides of protein X1 of SARS-CoV Urbani: 0.5
  Binding of serum SARS-yellow to looped/cyclic peptide (PEPSCAN-ELISA): 0.3
[3]
  Binding of a rabbit serum to linear peptides: 0.1
  Binding of a rabbit serum to looped peptides: 0.5

## IPYNSVTDTIVVTEG
[1]
  Binding of Control Serum Blood-Bank to Looped peptides: 0.6
  Binding of Control serum Blood-bank to linear peptides: 0.4
  Binding of Control serum LUMC to linear peptides: 0.5
  Binding of Control serum LUMC to looped peptides: 0.4
[2]
  Binding of serum 1a to linear peptides of protein X1 of SARS-CoV Urbani: 0.7
  Binding of serum 1a to looped/cyclic peptides of protein X1 of SARS-CoV Urbani: 0.5
  Binding of serum 1b to linear peptides of protein X1 of SARS-CoV Urbani: 0.5
  Binding of serum 1b to looped/cyclic peptides of protein X1 of SARS-CoV Urbani: 0.4
  Binding of serum 2 to linear peptides of protein X1 of SARS-CoV Urbani: 0.5
  Binding of serum 2 to looped/cyclic peptides of protein X1 of SARS-CoV Urbani: 0.4
  Binding of serum 6 to linear peptides of protein X1 of SARS-CoV Urbani: 0.4
  Binding of serum 6 to looped/cyclic peptides of protein X1 of SARS-CoV Urbani: 0.3
  Binding of serum 37 to linear peptides of protein X1 of SARS-CoV Urbani: 0.6
  Binding of serum 37 to looped/cyclic peptides of protein X1 of SARS-CoV Urbani: 0.5
  Binding of serum 62 to linear peptides of protein X1 of SARS-CoV Urbani: 0.4
  Binding of serum 62 to looped/cyclic peptides of protein X1 of SARS-CoV Urbani: 0.5
  Binding of serum London to linear peptides of protein X1 of SARS-CoV Urbani: 0.2
  Binding of serum London to looped/cyclic peptides of protein X1 of SARS-CoV Urbani: 0.2
  Binding of serum SARS-green to linear peptides of protein X1 of SARS-CoV Urbani: 0.3
  Binding of serum SARS-green to looped/cyclic peptides of protein X1 of SARS-CoV Urbani: 0.3
  Binding of serum SARS-yellow to linear peptides of protein X1 of SARS-CoV Urbani: 0.4
  Binding of serum SARS-yellow to looped/cyclic peptides of protein X1 of SARS-CoV Urbani: 0.2
[3]
  Binding of a rabbit serum to linear peptides: 0.1
  Binding of a rabbit serum to looped peptides: 0.3
